Reference: ChEMBL document CHEMBL1201862, “PubChem BioAssay data set” (2004)
Calls of active or inactive are those of the source.

Experiments:
[1] = molecular target: T1, DNA repair protein RAD52 homolog (Homo sapiens, UniProt P43351); type: functional, biochemical
T1 sequence (P43351 whole entry): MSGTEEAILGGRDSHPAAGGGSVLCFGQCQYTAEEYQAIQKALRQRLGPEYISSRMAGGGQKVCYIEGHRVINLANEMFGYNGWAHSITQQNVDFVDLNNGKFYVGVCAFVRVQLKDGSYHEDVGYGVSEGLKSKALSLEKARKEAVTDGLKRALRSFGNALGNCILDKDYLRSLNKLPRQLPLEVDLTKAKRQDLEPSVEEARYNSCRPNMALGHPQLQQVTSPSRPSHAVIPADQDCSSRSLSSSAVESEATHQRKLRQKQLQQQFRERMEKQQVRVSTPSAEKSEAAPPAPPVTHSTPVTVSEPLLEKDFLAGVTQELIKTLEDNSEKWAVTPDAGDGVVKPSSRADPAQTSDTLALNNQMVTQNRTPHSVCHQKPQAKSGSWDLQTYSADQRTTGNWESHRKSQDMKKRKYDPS

[2] = molecular target: T2, DNA repair and recombination protein RAD54-like (Homo sapiens, UniProt Q92698); assay: inhibitors of human RAD54 branch migration, confirmation, biochemical, fluorescence, cherry-picked samples, dose series (AID 651657); type: functional
T2 sequence (Q92698 whole entry): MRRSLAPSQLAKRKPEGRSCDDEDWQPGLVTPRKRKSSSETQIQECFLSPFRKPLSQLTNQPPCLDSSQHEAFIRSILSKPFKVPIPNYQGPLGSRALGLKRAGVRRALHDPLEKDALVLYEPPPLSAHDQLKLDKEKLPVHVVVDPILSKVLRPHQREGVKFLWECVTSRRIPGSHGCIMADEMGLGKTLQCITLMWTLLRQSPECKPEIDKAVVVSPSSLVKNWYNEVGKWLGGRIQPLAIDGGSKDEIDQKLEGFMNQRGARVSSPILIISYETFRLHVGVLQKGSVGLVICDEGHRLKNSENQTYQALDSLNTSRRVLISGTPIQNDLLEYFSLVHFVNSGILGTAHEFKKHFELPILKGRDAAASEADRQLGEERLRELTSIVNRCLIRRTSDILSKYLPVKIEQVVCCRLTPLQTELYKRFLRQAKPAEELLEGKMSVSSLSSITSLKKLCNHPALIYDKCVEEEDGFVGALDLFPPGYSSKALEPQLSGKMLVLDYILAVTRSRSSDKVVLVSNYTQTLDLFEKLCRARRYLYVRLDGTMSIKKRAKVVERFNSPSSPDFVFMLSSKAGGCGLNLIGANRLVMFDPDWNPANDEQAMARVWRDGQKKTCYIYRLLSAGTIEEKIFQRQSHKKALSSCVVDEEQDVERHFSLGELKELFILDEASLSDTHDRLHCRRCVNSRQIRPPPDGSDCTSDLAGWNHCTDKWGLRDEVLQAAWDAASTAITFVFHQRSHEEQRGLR

[3] = molecular target: T3, Microphthalmia-associated transcription factor (Homo sapiens, UniProt O75030); assay: TRPM1 promoter luciferase signal decrease, dose response, MITF inhibitor project, cell-based, SK-MEL-5, cherry-picked, set 3 (AID 493073); type: functional
T3 sequence (O75030 whole entry): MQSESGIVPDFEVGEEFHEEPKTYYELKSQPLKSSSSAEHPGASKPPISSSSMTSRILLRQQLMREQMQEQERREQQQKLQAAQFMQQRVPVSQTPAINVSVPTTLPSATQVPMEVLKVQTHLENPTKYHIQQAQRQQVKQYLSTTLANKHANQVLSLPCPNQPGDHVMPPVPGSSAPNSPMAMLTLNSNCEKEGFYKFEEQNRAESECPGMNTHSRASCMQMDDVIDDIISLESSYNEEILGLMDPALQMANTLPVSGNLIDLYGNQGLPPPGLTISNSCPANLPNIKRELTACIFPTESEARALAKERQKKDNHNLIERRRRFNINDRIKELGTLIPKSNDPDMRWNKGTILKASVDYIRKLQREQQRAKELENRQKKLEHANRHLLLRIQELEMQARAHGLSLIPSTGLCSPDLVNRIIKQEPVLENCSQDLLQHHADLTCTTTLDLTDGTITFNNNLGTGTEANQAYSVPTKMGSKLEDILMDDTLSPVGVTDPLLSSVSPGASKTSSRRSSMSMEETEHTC

[4] = molecular target: DNA (cytosine-5)-methyltransferase 1 (Homo sapiens, UniProt P26358); assay: DNMT1 methyltransferase inhibitors, confirmation, biochemical, fluorescent molecular beacon (AID 602386); type: functional
[5] = molecular target: T4, RNA-binding protein pos-1 (Caenorhabditis elegans, UniProt G5EF15); assay: inhibitors of POS-1/mex-3 RNA binding, dose response, biochemical, fluorescence polarization (AID 1964);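 further: purified POS-1 fused to maltose binding protein made in E. coli; potency of compounds blocking POS-1 binding to fluorescent RNA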
T4 sequence (G5EF15 whole entry): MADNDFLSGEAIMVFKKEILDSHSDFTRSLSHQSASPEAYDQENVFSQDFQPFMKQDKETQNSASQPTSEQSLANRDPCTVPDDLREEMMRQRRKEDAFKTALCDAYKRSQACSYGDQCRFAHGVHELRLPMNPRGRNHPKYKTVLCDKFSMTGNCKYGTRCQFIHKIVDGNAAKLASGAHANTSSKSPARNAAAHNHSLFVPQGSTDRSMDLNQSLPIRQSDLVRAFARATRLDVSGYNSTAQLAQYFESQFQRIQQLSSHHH

[6] = molecular target: T5, Rac GTPase-activating protein 1 (Homo sapiens, UniProt Q9H0H5); assay: MgcRacGAP GTPase-activating activity inhibitors, confirmation, biochemical, ADP Hunter fluorescence, primary and confirmatory (AID 624330); type: functional
T5 sequence (Q9H0H5 whole entry): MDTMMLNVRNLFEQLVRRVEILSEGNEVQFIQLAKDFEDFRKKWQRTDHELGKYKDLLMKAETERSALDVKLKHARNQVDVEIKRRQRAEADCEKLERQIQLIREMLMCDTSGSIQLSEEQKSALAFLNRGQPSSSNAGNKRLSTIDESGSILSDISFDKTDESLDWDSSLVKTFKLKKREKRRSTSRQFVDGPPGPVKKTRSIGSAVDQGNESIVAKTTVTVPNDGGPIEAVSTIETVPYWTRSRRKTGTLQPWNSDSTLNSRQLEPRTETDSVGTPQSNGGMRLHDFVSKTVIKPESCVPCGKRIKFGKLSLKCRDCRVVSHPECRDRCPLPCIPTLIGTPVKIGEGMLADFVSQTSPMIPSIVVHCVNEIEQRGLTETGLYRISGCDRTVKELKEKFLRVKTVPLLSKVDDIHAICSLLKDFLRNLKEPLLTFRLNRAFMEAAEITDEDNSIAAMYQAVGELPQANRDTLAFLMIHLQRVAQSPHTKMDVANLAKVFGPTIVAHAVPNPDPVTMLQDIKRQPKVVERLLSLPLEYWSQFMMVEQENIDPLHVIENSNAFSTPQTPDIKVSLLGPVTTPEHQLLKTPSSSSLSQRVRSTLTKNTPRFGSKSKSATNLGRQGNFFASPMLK

[7] = molecular target: T6, Sentrin-specific protease 8 (Homo sapiens, UniProt Q96LD8); type: functional
T6 sequence (Q96LD8 whole entry): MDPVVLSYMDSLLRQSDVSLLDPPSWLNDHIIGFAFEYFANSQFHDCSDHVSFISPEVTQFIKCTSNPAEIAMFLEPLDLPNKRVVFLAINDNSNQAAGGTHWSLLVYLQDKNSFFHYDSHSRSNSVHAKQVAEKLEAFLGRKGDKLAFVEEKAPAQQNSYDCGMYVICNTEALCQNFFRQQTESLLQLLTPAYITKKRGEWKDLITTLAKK

[8] = molecular target: T6, Sentrin-specific protease 8; type: functional; remark: listed apart in the source
[9] = HeLa cell cytotoxicity, dose response, cytotoxicity control for MgcRacGAP inhibitor project (AID 624300); type: functional
Protein skinhead-1 = molecular target: T7, Protein skinhead-1 (Caenorhabditis elegans, UniProt P34707); type: functional
T7 sequence (P34707 whole entry): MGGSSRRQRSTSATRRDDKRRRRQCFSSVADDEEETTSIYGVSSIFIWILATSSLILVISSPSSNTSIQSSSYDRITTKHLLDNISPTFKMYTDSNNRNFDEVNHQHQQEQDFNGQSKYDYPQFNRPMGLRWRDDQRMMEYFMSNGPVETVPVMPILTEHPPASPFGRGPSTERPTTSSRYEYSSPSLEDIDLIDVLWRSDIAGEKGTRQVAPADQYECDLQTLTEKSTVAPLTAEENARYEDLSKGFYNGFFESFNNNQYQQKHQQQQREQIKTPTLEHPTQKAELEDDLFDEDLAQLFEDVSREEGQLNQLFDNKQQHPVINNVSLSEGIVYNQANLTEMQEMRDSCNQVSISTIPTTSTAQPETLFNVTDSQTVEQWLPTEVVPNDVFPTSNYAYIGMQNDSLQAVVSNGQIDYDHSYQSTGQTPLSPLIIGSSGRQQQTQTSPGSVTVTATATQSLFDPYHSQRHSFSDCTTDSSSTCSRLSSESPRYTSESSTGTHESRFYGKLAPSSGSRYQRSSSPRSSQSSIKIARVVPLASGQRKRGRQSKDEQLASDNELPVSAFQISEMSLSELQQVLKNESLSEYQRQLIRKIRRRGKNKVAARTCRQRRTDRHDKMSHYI

[10] = molecular target: T8, Low molecular weight phosphotyrosine protein phosphatase (Homo sapiens, UniProt P24666); type: functional; settings: read-out: IC50_Mean;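 further: Dose-response confirmation assay measuring inhibition of LMPTP enzyme activity by fluorescence intensity read-out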
T8 sequence (P24666 whole entry): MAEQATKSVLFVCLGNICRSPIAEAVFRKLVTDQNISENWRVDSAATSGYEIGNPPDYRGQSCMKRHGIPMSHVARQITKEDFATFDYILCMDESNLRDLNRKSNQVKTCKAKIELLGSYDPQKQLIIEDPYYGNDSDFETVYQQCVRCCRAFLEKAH

Cytochrome P450 3A4 = Cytochrome P450 3A4 (Homo sapiens, UniProt P08684);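 further: CYP3A4 tested as one member of a cytochrome P450 panel screen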
[11] = inhibitors of Vif binding to APOBEC3G peptide, primary screen, biochemical, TR-FRET, GST-Vif 1-94, biotin-A3G peptide, dose response retest (AID 1117319); type: functional;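 further: TR-FRET signal of purified GST-Vif binding a biotinylated A3G peptide; inhibitors lower the FRET signal by blocking Vif and A3G binding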
[12] = molecular target: T9, Hepatocyte nuclear factor 4-alpha (Homo sapiens, UniProt P41235); type: functional, cell-based;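 further: biochemical luminescence-based dose-response counterscreen measuring inhibition of HNF4 dimerization, run alongside a screen for blockers of ABHD5–perilipin-5 interaction; split luciferase complementation of HNF4 fusion proteins in cell lysate measuring dimerization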
T9 sequence (P41235 whole entry): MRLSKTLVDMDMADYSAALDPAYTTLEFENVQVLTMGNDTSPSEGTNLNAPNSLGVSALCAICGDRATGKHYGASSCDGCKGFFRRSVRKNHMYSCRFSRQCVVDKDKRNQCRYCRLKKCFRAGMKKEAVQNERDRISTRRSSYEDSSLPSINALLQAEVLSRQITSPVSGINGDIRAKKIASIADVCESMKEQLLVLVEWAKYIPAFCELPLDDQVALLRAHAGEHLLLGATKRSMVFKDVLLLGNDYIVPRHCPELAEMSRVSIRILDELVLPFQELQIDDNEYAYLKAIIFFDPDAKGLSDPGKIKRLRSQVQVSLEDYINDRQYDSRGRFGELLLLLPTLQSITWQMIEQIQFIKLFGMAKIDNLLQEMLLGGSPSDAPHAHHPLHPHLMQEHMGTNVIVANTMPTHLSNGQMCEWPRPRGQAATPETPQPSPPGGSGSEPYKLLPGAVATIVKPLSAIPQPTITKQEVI

[13] = HEK293T cytotoxicity, dose response, cytotoxicity control for miR-122 modulator project, cell-based, activator set, cherry-pick (AID 720690); type: functional;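 further: HEK293T human cells scored for general mammalian cytotoxicity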
[14] = miR-122 activators in hepatoma reporter cells, dose response, cell-based, Huh7 psiCHECK-miR122, Renilla luciferase, cherry-picked (AID 651956); type: functional;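 further: huh7 hepatoma cells stably carrying a psiCHECK-2 miR-122 sensor plasmid; renilla luciferase signal reporting endogenous miR-122 activity after 48 h compound exposure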

Sequence of Cytochrome P450 3A4 (P08684 whole entry): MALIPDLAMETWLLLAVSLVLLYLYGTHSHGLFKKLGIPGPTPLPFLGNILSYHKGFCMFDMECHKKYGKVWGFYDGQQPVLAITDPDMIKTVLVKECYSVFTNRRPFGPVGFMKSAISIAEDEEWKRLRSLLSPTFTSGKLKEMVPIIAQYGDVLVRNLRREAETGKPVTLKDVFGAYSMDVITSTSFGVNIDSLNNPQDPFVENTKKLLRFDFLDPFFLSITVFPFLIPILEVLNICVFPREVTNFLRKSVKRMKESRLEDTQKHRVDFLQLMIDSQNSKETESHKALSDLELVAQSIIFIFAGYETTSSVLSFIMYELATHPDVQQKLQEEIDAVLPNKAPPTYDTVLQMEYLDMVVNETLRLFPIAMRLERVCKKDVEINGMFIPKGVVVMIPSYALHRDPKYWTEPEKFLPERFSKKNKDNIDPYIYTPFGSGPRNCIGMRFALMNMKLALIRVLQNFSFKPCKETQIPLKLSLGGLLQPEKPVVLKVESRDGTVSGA
Sequence of DNA (cytosine-5)-methyltransferase 1 (P26358 whole entry, the tested form may be a part): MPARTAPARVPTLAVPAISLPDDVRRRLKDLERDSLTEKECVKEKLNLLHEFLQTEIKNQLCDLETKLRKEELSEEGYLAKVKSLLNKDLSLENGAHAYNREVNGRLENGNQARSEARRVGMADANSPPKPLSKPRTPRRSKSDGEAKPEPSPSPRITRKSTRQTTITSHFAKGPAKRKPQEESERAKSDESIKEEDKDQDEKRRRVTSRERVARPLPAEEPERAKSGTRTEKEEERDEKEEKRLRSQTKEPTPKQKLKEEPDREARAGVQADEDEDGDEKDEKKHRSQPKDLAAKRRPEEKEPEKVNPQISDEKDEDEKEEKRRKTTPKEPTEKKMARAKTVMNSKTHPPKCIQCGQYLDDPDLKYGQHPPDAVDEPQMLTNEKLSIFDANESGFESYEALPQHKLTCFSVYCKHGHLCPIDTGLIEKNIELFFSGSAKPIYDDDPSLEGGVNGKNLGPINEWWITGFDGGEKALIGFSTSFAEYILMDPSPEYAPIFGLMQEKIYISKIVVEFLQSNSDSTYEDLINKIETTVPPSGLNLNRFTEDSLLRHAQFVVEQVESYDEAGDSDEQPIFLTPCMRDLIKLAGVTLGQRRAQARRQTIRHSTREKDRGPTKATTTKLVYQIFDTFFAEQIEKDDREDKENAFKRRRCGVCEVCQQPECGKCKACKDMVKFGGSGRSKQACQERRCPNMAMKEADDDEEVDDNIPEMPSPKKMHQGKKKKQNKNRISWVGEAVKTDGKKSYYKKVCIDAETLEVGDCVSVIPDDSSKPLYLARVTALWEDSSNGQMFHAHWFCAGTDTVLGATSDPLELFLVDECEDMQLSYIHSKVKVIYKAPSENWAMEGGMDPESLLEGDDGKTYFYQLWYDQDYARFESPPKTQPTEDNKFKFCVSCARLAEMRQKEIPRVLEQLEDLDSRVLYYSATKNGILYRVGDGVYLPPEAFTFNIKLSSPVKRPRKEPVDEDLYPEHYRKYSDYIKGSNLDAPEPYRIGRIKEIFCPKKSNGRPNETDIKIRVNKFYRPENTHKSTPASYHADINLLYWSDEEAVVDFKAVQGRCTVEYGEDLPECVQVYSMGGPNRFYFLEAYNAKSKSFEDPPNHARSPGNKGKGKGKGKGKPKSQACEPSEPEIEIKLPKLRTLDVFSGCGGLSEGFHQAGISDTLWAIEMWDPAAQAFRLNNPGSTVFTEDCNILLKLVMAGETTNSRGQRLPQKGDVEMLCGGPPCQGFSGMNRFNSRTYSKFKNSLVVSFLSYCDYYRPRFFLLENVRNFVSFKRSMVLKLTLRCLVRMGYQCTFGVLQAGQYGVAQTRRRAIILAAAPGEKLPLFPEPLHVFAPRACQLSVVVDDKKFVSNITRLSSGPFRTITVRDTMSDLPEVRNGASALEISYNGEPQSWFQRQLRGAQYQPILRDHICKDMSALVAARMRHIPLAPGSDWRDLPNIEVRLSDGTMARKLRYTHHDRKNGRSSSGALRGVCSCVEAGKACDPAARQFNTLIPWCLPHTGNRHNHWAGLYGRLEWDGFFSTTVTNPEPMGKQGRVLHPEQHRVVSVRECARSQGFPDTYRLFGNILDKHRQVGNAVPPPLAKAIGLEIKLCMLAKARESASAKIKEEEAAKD

Cc1ccc(-c2nc(C(=O)NCCCN(C)C)cc3c2[nH]c2ccccc23)cc1
AC50 [1]: 2.77 µM (active) | AC50 [2]: 10.9 µM (active) | AC50 [3]: 11.2 µM (active)

O=C1NC(=S)N(c2ccccc2)C(=O)/C1=C/c1ccco1
IC50 [4]: 0.811 µM (active) | EC50 [5]: 32.7 µM (active) | IC50 [6]: 8.35 µM (active)

O=C(O)/C=C/C(=O)Nc1ccc(O)cc1
IC50 [7]: 10.6 µM (active) | IC50 [8]: 16.2 µM (active)

c1ccc(Nc2cc(Nc3ccccc3)[nH]n2)cc1
CC50 [9]: 100 µM (active) | IC50 [6]: 50.9 µM (active)

CC1CCCCN1Cc1c(O)ccc2c(O)c(-c3nc4ccccc4s3)c(=N)oc12 (stereo unspecified)
CC50 [9]: 93.1 µM (active) | IC50 (Protein skinhead-1): 4.74 µM (active)

N=c1c(C(=O)NCc2ccco2)cc2c(=O)n3ccccc3nc2n1Cc1ccccc1
IC50 [10]: 28.4 µM (inactive)

CN1CCN(c2nc(-c3cccnc3)nc3ccccc23)CC1
AC50 [2]: 21.1 µM (active) | AC50 (Cytochrome P450 3A4): 25.1 µM (inconclusive) | IC50 [11]: > 100 µM (active)

Cc1cccc(C)c1OCc1cn(CC(=O)c2ccc(O)cc2)nn1
IC50 [12]: 4.78 µM (active)

C[C@H]1CN([C@@H](C)CO)C(=O)c2cc(NC(=O)Nc3ccc(C(F)(F)F)cc3)ccc2O[C@H]1CN(C)CC1CCCCC1
AC50 [13]: 18.7 µM (active) | AC50 [14]: 8.8 µM (active)

CCCCCNC(=O)C(c1ccc(OC)cc1)n1c(=O)c(-c2ccco2)nc2ccccc21 (stereo unspecified)
IC50 [12]: 3.07 µM (active)

O=c1cc(CN2CCCCCCC2)c2ccccc2o1
IC50 [10]: 41.5 µM (inactive)
